Laboratory results from patent publication US20260176320A1, “MODULATORS OF G-PROTEIN COUPLED RECEPTORS” (priority 2018, published 2026).
Like-named read-outs stand apart in the source and are kept apart here. Numbered stars: 1 amine (or outer) side, 2 acyl side, 3 side chain; on linkers, the order of the positions; unused ones are H or OH. Square brackets hold non-standard residues; d marks the D form. Side chains are listed from the residue outwards. Peptide text beside a SMILES is read from it. * marks the point of attachment. X1 = O=C(CSCC(=O)*)NCCN1C(=O)c2ccccc2C1=O; γGlu = O=C(O)[C@H](CCC(=O)[*:2])N[*:1]; X2 = O=C(CSCC(=O)*)NCCN1C(=O)CSC1=O; Palmitoyl = CCCCCCCCCCCCCCCC(=O)*; Aib = CC(C)(N)C(=O)O

How the values were obtained:
Format in all cases: cell-based
GLP-1R [1] = target: T1, GLP-1R (Homo sapiens, UniProt P43220); assay: PathHunter β-arrestin assay
Procedure: The effects of the chemical entities described herein on β-arrestin signaling and associated downstream processes (e.g., those delineated above) can be assessed using conventional methods, e.g., PathHunter β-arrestin Assay for determining β-arresting coupling (see Examples section). […] It has been shown that b-arrestin coupling is a key strep in receptor internalization and subsequent de-sensitization and attenuation of signaling.
5,000 cells were seeded in appropriate cell culture media per well in a low volume 384-well tissue culture plate. The assay plate was incubated with cells overnight at 37° C. and 5% CO2. The media was removed, and 5 μL of appropriate cell culture media containing 0.2% BSA was added. Agonist serial dilutions in a separate 384 well dilution plate in a 22-point series of 2× dilutions of agonist in DMSO were performed as follows. 80 μL of the highest concentration of Agonist/DMSO was added to well No. 1. 40 μL was removed from well No. 1, and added to well No. 2, followed by gentle mixing. […] This process was repeated until well No. 22. Additional serial dilutions for additional agonists were set up in a similar manner. 100 nL of each 2× agonist serial dilution was added in duplicate to the designated agonist rows of the assay plate using the Labcyte ECHO. Assay plate was incubated for 90 minutes at 37° C. and 5% CO2. A stock of Working Detection Solution in a separate 15 ml polypropylene tube was prepared by mixing 19 parts of Cell Assay Buffer, 5 parts of Substrate Reagent 1, 1 part Substrate Reagent 2. […] Plates were spun down briefly. Assay plate was incubated for 3 hour at room temperature in the dark for the immunocompetition reaction to occur. Samples were read on Tecan i-control plate reader using luminescence mode with 100 ms integration time. Data analysis was performed using GraphPad Prism.

GLP-1R [2] = target: T1, GLP-1R; assay: HitHunter cAMP assay (GLP-1R); conditions: cAMP; for Emax: read-out: (Emax) GLP-1R
Method in brief: (§1)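 Suspension cells (10,000/well) in HBSS with 10 mM HEPES, 625 μM IBMX, 0.2% BSA exposed to 22-point 2-fold agonist series in duplicate for 30 min at room temperature. cAMP measured by antibody immunocompetition with overnight development, luminescence read-out.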

GIP-R = target: T2, GIP-R (Homo sapiens, UniProt P48546); assay: HitHunter cAMP assay (GIP-R); conditions: cAMP; for Emax: read-out: (Emax) GIP-R
T2 sequence (P48546 22-466): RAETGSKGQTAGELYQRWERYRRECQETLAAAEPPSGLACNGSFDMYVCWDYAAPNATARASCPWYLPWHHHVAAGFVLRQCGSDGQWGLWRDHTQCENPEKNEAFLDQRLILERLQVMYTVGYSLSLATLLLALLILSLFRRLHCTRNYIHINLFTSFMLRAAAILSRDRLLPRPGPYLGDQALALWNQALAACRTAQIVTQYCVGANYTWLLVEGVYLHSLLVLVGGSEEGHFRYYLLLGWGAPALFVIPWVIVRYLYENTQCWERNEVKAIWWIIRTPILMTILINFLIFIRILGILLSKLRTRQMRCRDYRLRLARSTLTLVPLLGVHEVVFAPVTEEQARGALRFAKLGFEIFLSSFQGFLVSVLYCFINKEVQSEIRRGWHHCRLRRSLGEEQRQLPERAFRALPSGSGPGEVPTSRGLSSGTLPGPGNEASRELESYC
Method in brief: as §1

[3] = Table 3, read-out: EC50 GLP-1R/nM
[4] = Table 3A, read-out: EC50 GLP-1R/nM

T1 sequence (P43220 24-463): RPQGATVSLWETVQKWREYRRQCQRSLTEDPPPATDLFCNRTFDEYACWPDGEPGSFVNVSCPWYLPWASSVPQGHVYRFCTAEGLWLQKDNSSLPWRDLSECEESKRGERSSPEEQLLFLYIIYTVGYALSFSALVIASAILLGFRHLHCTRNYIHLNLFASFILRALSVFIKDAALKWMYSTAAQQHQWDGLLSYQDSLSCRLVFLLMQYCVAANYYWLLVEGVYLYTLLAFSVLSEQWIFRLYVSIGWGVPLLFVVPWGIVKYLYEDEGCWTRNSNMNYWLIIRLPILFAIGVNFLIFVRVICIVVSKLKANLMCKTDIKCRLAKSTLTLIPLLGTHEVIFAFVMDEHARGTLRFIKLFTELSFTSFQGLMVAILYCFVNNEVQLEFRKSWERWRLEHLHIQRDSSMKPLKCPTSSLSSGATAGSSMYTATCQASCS

Structure (SMILES) | Emax (GLP-1R [2]; Table 3) | EC50 (GLP-1R [2]; [3]) | Emax (GLP-1R [2]; Table 3A) | EC50 (GLP-1R [2]; [4]) | EC50 (GLP-1R [2]; EC50 GLP-1R/nM, Table 3A) | Emax (GIP-R; Table 3A) | other results
CC[C@H](C)[C@H](NC(=O)[C@H](CO)NC(=O)[C@H](Cc1ccc(O)cc1)NC(=O)[C@H](CC(=O)O)NC(=O)[C@H](CO)NC(=O)[C@@H](NC(=O)[C@H](Cc1ccccc1)NC(=O)[C@@H](NC(=O)CNC(=O)[C@H](CCC(=O)O)NC(=O)CSCC(=O)NCCN1C(=O)c2ccccc2C1=O)[C@@H](C)O)[C@@H](C)O)C(=O)N[C@@H](Cc1ccc(O)cc1)C(=O)N[C@@H](CC(C)C)C(=O)N[C@@H](CC(=O)O)C(=O)N[C@@H](CCCCN)C(=O)N[C@@H](CCC(N)=O)C(=O)N[C@@H](C)C(=O)N[C@@H](C)C(=O)NC(C)(C)C(=O)N[C@@H](CCC(=O)O)C(=O)N[C@@H](Cc1ccccc1)C(=O)N[C@H](C(=O)N[C@@H](CCC(=O)O)C(=O)N[C@@H](Cc1c[nH]c2ccccc12)C(=O)N[C@@H](CC(C)C)C(=O)N[C@@H](CC(C)C)C(=O)N[C@@H](C)C(=O)NCC(=O)NCC(=O)N1CCC[C@H]1C(=O)N[C@@H](CO)C(=O)N[C@@H](CO)C(=O)NCC(=O)N[C@@H](C)C(=O)N1CCC[C@H]1C(=O)N1CCC[C@H]1C(=O)N1CCC[C@H]1C(=O)N[C@@H](CO)C(=O)N[C@@H](CCCCN)C(N)=O)C(C)C [compound 149] (X1-EGTFTSDYSIYLDKQAA[Aib]EFVEWLLAGGPSSGAPPPSK-NH2) | – | – | – | – | – | – | EC50 (GLP-1R [1]): > 1000 nM
CCCCCCCCCCCCCCCC(=O)N[C@@H](CCC(=O)NCCCC[C@H](NC(=O)[C@H](CO)NC(=O)[C@@H]1CCCN1C(=O)[C@@H]1CCCN1C(=O)[C@@H]1CCCN1C(=O)[C@H](C)NC(=O)CNC(=O)[C@H](CO)NC(=O)[C@H](CO)NC(=O)[C@@H]1CCCN1C(=O)CNC(=O)CNC(=O)[C@H](C)NC(=O)[C@H](CC(C)C)NC(=O)[C@H](CC(C)C)NC(=O)[C@H](Cc1c[nH]c2ccccc12)NC(=O)[C@H](CC(N)=O)NC(=O)[C@@H](NC(=O)[C@H](Cc1ccccc1)NC(=O)[C@H](CCC(=O)O)NC(=O)C(C)(C)NC(=O)[C@H](C)NC(=O)[C@H](C)NC(=O)[C@H](CCC(N)=O)NC(=O)[C@H](CCCCN)NC(=O)[C@H](CC(=O)O)NC(=O)[C@H](CC(C)C)NC(=O)[C@H](Cc1ccc(O)cc1)NC(=O)[C@@H](NC(=O)[C@H](CO)NC(=O)[C@H](Cc1ccc(O)cc1)NC(=O)[C@H](CC(=O)O)NC(=O)[C@H](CO)NC(=O)[C@@H](NC(=O)[C@H](Cc1ccccc1)NC(=O)[C@@H](NC(=O)CNC(=O)[C@H](CCC(=O)O)NC(=O)CC(C)(C)NC(=O)CCN1CCCCC1=O)[C@@H](C)O)[C@@H](C)O)[C@@H](C)CC)C(C)C)C(N)=O)C(=O)O [Compound 3] | 96% | 0.1 to 1 nM | 96% | 0.1 to 1 nM | – | – | EC50 (GLP-1R [1]; PathHunter β-arrestin assay, read-out: β-arrestin activity EC50): > 1000 nM
CCCCCCCCCCCCCCCC(=O)N[C@@H](CCC(=O)NCCCC[C@H](NC(=O)[C@H](CO)NC(=O)[C@@H]1CCCN1C(=O)[C@@H]1CCCN1C(=O)[C@@H]1CCCN1C(=O)[C@H](C)NC(=O)CNC(=O)[C@H](CO)NC(=O)[C@H](CO)NC(=O)[C@@H]1CCCN1C(=O)CNC(=O)CNC(=O)[C@H](C)NC(=O)[C@H](CC(C)C)NC(=O)[C@H](CC(C)C)NC(=O)[C@H](Cc1c[nH]c2ccccc12)NC(=O)[C@H](CC(N)=O)NC(=O)[C@@H](NC(=O)[C@H](Cc1ccccc1)NC(=O)[C@H](CCC(=O)O)NC(=O)C(C)(C)NC(=O)[C@H](C)NC(=O)[C@H](C)NC(=O)[C@H](CCC(N)=O)NC(=O)[C@H](CCCCN)NC(=O)[C@H](CC(=O)O)NC(=O)[C@H](CC(C)C)NC(=O)[C@H](Cc1ccc(O)cc1)NC(=O)[C@@H](NC(=O)[C@H](CO)NC(=O)[C@H](Cc1ccc(O)cc1)NC(=O)[C@H](CC(=O)O)NC(=O)[C@H](CO)NC(=O)[C@@H](NC(=O)[C@H](Cc1ccccc1)NC(=O)[C@@H](NC(=O)CNC(=O)[C@H](CCC(=O)O)NC(=O)CSCC(=O)NCCN1C(=O)CC(c2ccccc2)C1=O)[C@@H](C)O)[C@@H](C)O)[C@@H](C)CC)C(C)C)C(N)=O)C(=O)O (mixture of isomers) [Compound 99] | 102% | – | 102% | – | 1 to 10 nM | – | EC50 (GLP-1R [2]; EC50 GLP-1R/nM, Table 3): 1 to 10 nM; EC50 (GIP-R; EC50 GIP-R/nM, Table 3): > 1000 nM; Emax at 1 µM (GIP-R; read-out: (Emax) GIP-R at 1 μM, Table 3, at 1 μM): 11%; EC50 (GIP-R; read-out: EC50 GIP-R/nM, Table 3A): > 1000 nM
CCCCCCCCCCCCCCCC(=O)N[C@@H](CCC(=O)NCCCC[C@H](NC(=O)[C@H](CO)NC(=O)[C@@H]1CCCN1C(=O)[C@@H]1CCCN1C(=O)[C@@H]1CCCN1C(=O)[C@H](C)NC(=O)CNC(=O)[C@H](CO)NC(=O)[C@H](CO)NC(=O)[C@@H]1CCCN1C(=O)CNC(=O)CNC(=O)[C@H](C)NC(=O)[C@H](CC(C)C)NC(=O)[C@H](CC(C)C)NC(=O)[C@H](Cc1c[nH]c2ccccc12)NC(=O)[C@H](CC(N)=O)NC(=O)[C@@H](NC(=O)[C@H](Cc1ccccc1)NC(=O)[C@H](CCC(=O)O)NC(=O)C(C)(C)NC(=O)[C@H](C)NC(=O)[C@H](C)NC(=O)[C@H](CCC(N)=O)NC(=O)[C@H](CCCCN)NC(=O)[C@H](CC(=O)O)NC(=O)[C@H](CC(C)C)NC(=O)[C@H](Cc1ccc(O)cc1)NC(=O)[C@@H](NC(=O)[C@H](CO)NC(=O)[C@H](Cc1ccc(O)cc1)NC(=O)[C@H](CC(=O)O)NC(=O)[C@H](CO)NC(=O)[C@@H](NC(=O)[C@H](Cc1ccccc1)NC(=O)[C@@H](NC(=O)CNC(=O)[C@H](CCC(=O)O)NC(=O)CSCC(=O)NCCN1C(=O)c2cc3ccccc3cc2C1=O)[C@@H](C)O)[C@@H](C)O)[C@@H](C)CC)C(C)C)C(N)=O)C(=O)O [Compound 249] | – | – | 101% | – | 10 to 100 nM | 105% | EC50 (GIP-R; EC50 GIP-R/nM, Table 3A): 1 to 10 nM
CCCCCCCCCCCCCCCC(=O)N[C@@H](CCC(=O)NCCCC[C@H](NC(=O)[C@H](CO)NC(=O)[C@@H]1CCCN1C(=O)[C@@H]1CCCN1C(=O)[C@@H]1CCCN1C(=O)[C@H](C)NC(=O)CNC(=O)[C@H](CO)NC(=O)[C@H](CO)NC(=O)[C@@H]1CCCN1C(=O)CNC(=O)[C@H](CCCNC(=N)N)NC(=O)[C@H](CCC(N)=O)NC(=O)[C@H](C)NC(=O)[C@H](CC(C)C)NC(=O)[C@H](CC(C)C)NC(=O)[C@H](Cc1c[nH]c2ccccc12)NC(=O)[C@H](CC(N)=O)NC(=O)[C@@H](NC(=O)[C@H](Cc1ccccc1)NC(=O)[C@H](CC(=O)O)NC(=O)[C@H](CCC(N)=O)NC(=O)[C@H](CCC(N)=O)NC(=O)[C@H](CCCNC(=N)N)NC(=O)[C@@H](NC(=O)[C@H](CCCCN)NC(=O)[C@H](CC(=O)O)NC(=O)[C@H](CCSC)NC(=O)[C@H](C)NC(=O)[C@@H](NC(=O)[C@H](CO)NC(=O)[C@H](Cc1ccc(O)cc1)NC(=O)[C@H](CC(=O)O)NC(=O)[C@H](CO)NC(=O)[C@@H](NC(=O)[C@H](Cc1ccccc1)NC(=O)[C@@H](NC(=O)CNC(=O)[C@H](CCC(=O)O)NC(=O)CSCC(=O)NCCN1C(=O)CSC1=O)[C@@H](C)O)[C@@H](C)CC)[C@@H](C)CC)[C@@H](C)CC)C(C)C)C(N)=O)C(=O)O [Compound 76] (X2-EGTFISDYSIAMDKIRQQDFVNWLLAQRGPSSGAPPPSK([γGlu-Palmitoyl])-NH2) | 95% | 1 to 10 nM | 95% | 1 to 10 nM | – | 89% | Emax (GIP-R; Table 3): 89%; EC50 (GIP-R; Table 3, read-out: EC50 GIP-R/nM): 0.1 to 1 nM; EC50 (GIP-R; Table 3A, read-out: EC50 GIP-R/nM): 0.1 to 1 nM
